Source: patent US9212134B2, “Inhibitors of viral entry into mammalian cells” (priority 2010, dated 2015)
“Also recorded” adds a separate entry of the source.

Experiments:
[1] = system: HIV/HA (H5) pseudotype virus; experiment: organism not typed; assay type: cell-based, influenza A virus H5N1; conditions: for inhibition at 25 µM: A549, read-out: % inhibition @ 25 μM influenza
[2] = system: HIV/VSV-G pseudotype virus; experiment: organism not typed; assay type: cell-based, vesicular stomatitis virus; conditions: for inhibition at 25 µM: read-out: % inhibition @ 25 μM VSV
[3] = system: HIV/HA (H7) pseudotype virus; assay type: cell-based, influenza virus (H7)
HIV/MLV pseudotype virus = assay type: cell-based
Influenza H1N1 (PR8) = assay type: cell-based, influenza virus H1N1 (PR8)
[4] = system: cell viability (endogenous cellular GAPDH); experiment: Cell viability, AlphaScreen SureFire GAPDH assay; conditions: cytotoxicity
Pseudotype ebola virus = experiment: microbe, parasite or virus in culture; assay type: cell-based; conditions: Zaire ebolavirus, read-out: % inhibition @ 25 μM EBOV
HIV/HA pseudotype virus = assay type: cell-based, influenza A virus H5N1
[5] = system: Influenza A virus [A/WS/33]; experiment: Plaque assay of influenza A virus A/WS/33 on MDCK cells; assay type: cell-based, influenza A virus A/WS/33 (H1N1); conditions: 25-200 nM (FIG. 7)

Structure (SMILES)	IC50 [1] [µM]	CC50 [4] [µM]	inhibition at 25 µM [1] [%]	inhibition at 25 µM [2] [%]	inhibition at 25 µM (Pseudotype ebola virus) [%]	other results
O=C(CN(c1ccc(Cl)cc1Cl)S(=O)(=O)c1ccccc1)Nc1ccccc1F [Compound 2]	–	–	–	–	–	IC90 [1]: 3.9 µM; IC90 [2]: > 100 µM; IC90 [3]: > 100 µM; IC90 (HIV/MLV pseudotype virus): 99 µM; IC50 (Influenza H1N1 (PR8)): 5.2 µM
O=C(CN(c1ccc(Cl)cc1Cl)S(=O)(=O)c1ccccc1)Nc1ccccc1F [Compound 6]	5.3	> 25	–	–	–	–
COc1cccc(N(CC(=O)Nc2cc(Cl)cc(Cl)c2)S(=O)(=O)c2ccccc2)c1 [Compound 7]	18.5	31.5	–	–	–	–
COc1ccc(OC)c(N(CC(=O)Nc2ccc(Cl)cc2)S(=O)(=O)c2ccc(C)cc2)c1 [Compound 8]	> 100	> 100	–	–	–	–
O=C(CN(c1ccc(Cl)c(Cl)c1)S(=O)(=O)c1ccccc1)Nc1ccccc1 [Compound 9]	20	42	–	–	–	–
O=C(CN(c1ccc(Cl)cc1Cl)S(=O)(=O)c1ccccc1)Nc1ccc(F)cc1 [Compound 10]	25	50.5	–	–	–	–
COc1ccc(N(CC(=O)Nc2ccccc2C)S(=O)(=O)c2ccccc2)cc1 [Compound 11]	> 100	> 100	–	–	–	–
COc1ccc(N(CC(=O)Nc2ccc(F)cc2)S(=O)(=O)c2ccccc2)cc1 [Compound 12]	> 100	> 100	–	–	–	–
COc1ccc(N(CC(=O)Nc2c(OC)cccc2OC)S(=O)(=O)c2ccccc2)cc1 [Compound 13]	> 100	> 100	–	–	–	–
COc1ccccc1N(CC(=O)Nc1cccc(C)c1C)S(=O)(=O)c1ccccc1 [Compound 14]	> 100	> 100	–	–	–	–
COc1cccc(NC(=O)CN(c2ccc(Cl)cc2C)S(=O)(=O)c2ccc(C)cc2)c1 [Compound 15]	> 100	43.4	–	–	–	–
COc1ccc(NC(=O)CN(c2ccc(Cl)cc2)S(=O)(=O)c2ccc(C)cc2)cc1 [Compound 16]	> 100	> 100	–	–	–	–
Cc1cccc(C)c1NC(=O)CN(c1cccc(Cl)c1)S(=O)(=O)c1ccccc1 [Compound 17]	> 100	> 100	–	–	–	–
COc1ccc(NC(=O)CN(c2cccc(Cl)c2)S(=O)(=O)c2ccccc2)c(OC)c1 [Compound 18]	> 100	> 100	–	–	–	–
O=C(CN(c1cccc(Cl)c1)S(=O)(=O)c1ccccc1)Nc1ccccc1Cl [Compound 19]	> 100	90.3	–	–	–	–
Cc1cccc(C)c1NC(=O)CN(c1ccccc1Cl)S(=O)(=O)c1ccccc1 [Compound 20]	> 100	> 100	–	–	–	–
COc1ccc(OC)c(NC(=O)CN(c2ccccc2Cl)S(=O)(=O)c2ccc(C)cc2)c1 [Compound 21]	> 100	> 100	–	–	–	–
Cc1ccc(S(=O)(=O)N(CC(=O)Nc2cccc(C)c2)c2ccccc2Cl)cc1 [Compound 22]	> 100	> 100	–	–	–	–
COc1ccc(NC(=O)CN(c2ccccc2Cl)S(=O)(=O)c2ccc(C)cc2)c(OC)c1 [Compound 23]	> 100	> 100	–	–	–	–
COC(=O)c1ccccc1NC(=O)CN(c1ccc(C)cc1)S(=O)(=O)c1ccc(OC)cc1 [Compound 11978_G07]	–	–	22	29	89	–
CCOc1ccc(N(C(C)C(=O)Nc2cccc(C(F)(F)F)c2)S(C)(=O)=O)cc1 (centres unmarked) [Compound 11982_F11]	–	–	87	73	25	–
COc1cccc(N(CC(=O)Nc2ccc(CSc3ccccc3)cc2)S(C)(=O)=O)c1 [Compound 11997_F05]	–	–	100	51	41	–
Cc1cccc(NC(=O)CN(c2cccc(Cl)c2Cl)S(C)(=O)=O)c1 [Compound 11998_D06]	–	–	88	0	0	–

Structure (SMILES)	IC50 [1] [µM]	CC50 [4] [µM]	inhibition at 25 µM [1] [%]	inhibition at 25 µM [2] [%]	inhibition at 25 µM (Pseudotype ebola virus) [%]	other results
CS(=O)(=O)N(CC(=O)Nc1ccccc1F)c1cc(C(F)(F)F)ccc1Cl [Compound 12020_E02]	–	–	86	68	43	–
COc1ccc(Cl)cc1NC(=O)CN(c1cccc(Cl)c1Cl)S(C)(=O)=O [Compound 12021_B02]	–	–	87	70	0	–
CCc1ccc(N(CC(=O)Nc2ccc(Oc3ccccc3)cc2)S(C)(=O)=O)cc1 [Compound 12066_B08]	–	–	98	24	31	–
Cc1c(Cl)cccc1NC(=O)CN(c1ccc(I)cc1)S(C)(=O)=O [Compound 12076_B09]	–	–	86	21	48	–
COc1ccccc1NC(=O)CN(c1ccc(Cl)cc1C)S(C)(=O)=O [Compound 12078_B05]	–	–	96	36	42	–
COc1ccc(S(=O)(=O)N(CC(=O)Nc2ccc(F)c(Cl)c2)c2ccccc2)cc1 [Compound 12078_D04]	–	–	40	60	87	–
COc1ccc(S(=O)(=O)N(CC(=O)Nc2ccc(F)cc2F)c2ccc(Cl)cc2)cc1 [Compound 12079_A05]	–	–	19	0	86	–
COc1ccc(Cl)cc1N(CC(=O)Nc1ccc(F)cc1F)S(=O)(=O)c1ccc(C)cc1 [Compound 12096_A08]	–	–	88	42	38	–
CCOc1ccccc1NC(=O)CN(c1cc(Cl)ccc1Cl)S(C)(=O)=O [Compound 12110_D02]	–	–	90	2	0	–
CCc1ccccc1N(CC(=O)Nc1cccc(F)c1)S(C)(=O)=O [Compound 12112_H02]	–	–	86	0	0	–
COc1ccc(S(=O)(=O)N(CC(=O)Nc2cccc3ccccc23)c2ccc(C)cc2)cc1 [Compound 12305_B04]	–	–	47	0	85	–
COc1ccc(S(=O)(=O)N(CC(=O)Nc2cccc3ccccc23)c2ccc(Cl)cc2)cc1 [Compound 12308_B02]	–	–	46	23	96	–
Cc1ccc(N(CC(=O)Nc2ccccc2C(C)C)S(C)(=O)=O)cc1 [Compound 12402_E03]	–	–	47	22	85	–
Cc1ccc(S(=O)(=O)N(CC(=O)Nc2ccccc2C(F)(F)F)c2ccc(F)cc2)cc1 [Compound 12440_F06]	–	–	46	45	93	–
COc1ccc(N(CC(=O)Nc2ccccc2F)S(=O)(=O)c2ccccc2)cc1Cl [Compound 12441_B08]	–	–	33	7	98	–
COc1ccc(S(=O)(=O)N(CC(=O)Nc2ccccc2SC)c2ccc(Cl)cc2)cc1 [Compound 12794_B09]	–	–	0	63	100	–
COc1ccc(N(CC(=O)Nc2ccccc2SC)S(=O)(=O)c2ccc(F)cc2)cc1 [Compound 12794_H03]	–	–	47	77	100	–
COc1ccc(N(CC(=O)Nc2ccccc2-c2ccccc2)S(=O)(=O)c2ccc(F)cc2)cc1 [Compound 12838_B07]	–	–	46	77	99	–
COC(=O)c1ccccc1NC(=O)CN(c1ccc(C)cc1)S(=O)(=O)c1ccccc1 [Compound 30636_C03]	–	–	26	42	87	–
O=C(CN(c1ccccc1F)S(=O)(=O)c1ccccc1)Nc1cccc(C(F)(F)F)c1 [Compound 30656_D10]	–	–	87	59	31	–
Cl.N [NH4Cl, ammonium chloride]	–	–	–	–	–	reduction of HIV/HA virus infection (HIV/HA pseudotype virus): significantly reduced the virus infection
CO/C1=C\C(C)=C\[C@@H](C)[C@@H](O)[C@@H](C)C/C(C)=C/C=C/[C@H](OC)[C@@H]([C@@H](C)[C@@H](O)[C@H](C)[C@@]2(O)C[C@@H](O)[C@H](C)[C@@H](C(C)C)O2)OC1=O [bafilomycin A]	–	–	–	–	–	inhibition of infectivity of HIV/HA pseudotype virus (HIV/HA pseudotype virus): efficiently inhibited the infectivity; also recorded: prevented HIV/HA infection; inhibition of infectivity of influenza virus infection [5]: efficiently inhibited the infectivity
